Measurements taken from paper PMC11823594, “Durlobactam in combination with β-lactams to combat Mycobacterium abscessus” (Antimicrobial Agents and Chemotherapy, 2024).
Entries after “also recorded” stand apart in the source; their conditions may differ. Read-outs that look alike come from different tables or passages of the source.

Tests used:
BlaMab = BlaMab (Mycobacterium abscessus, UniProt B1MCI3); assay: Ki,app for the β-lactamase; assay type: biochemical
[1] = Predicted average unbound steady-state plasma concentration (fCss,avg) at clinically relevant doses; set-up: species or system human; conditions: median unbound average steady-state plasma concentration, continuous infusion; daily dose DUR 4,000, AVI 1,500, IPM 4,000, CFT 1,800, AMX 1,500, SULO 1,000, CXM 1,500, SUL 4,000, TBP 1,800 mg
LDT3 = LDT3 (Mycobacterium abscessus, UniProt B1MHQ4); assay: Mass spectrometry of covalent adduct formation; assay type: binding; conditions: protein:drug 1:20, 2 h; mass accuracy ±5 Da; (−) = no change
Description: (§1) Truncated sequences of LDT1-5, DDC, PBP B, and PBP-lipo (Δ1–41) were generated by Celtek Biosciences and cloned into the pET28(a) + vector with a tobacco etch virus (TEV) protease cleavage site before the start codon. Clones were transformed into Escherichia coli BL21 (DE3) and grown to an OD600 of 0.6–0.8. Protein expression was induced with 0.25 mM isopropyl β-d-1-thiogalactopyranoside (IPTG) and incubated for 18 h at 18°C. Cell pellets were collected and stored at −20°C overnight, then resuspended in a buffer containing 50 mM Tris (pH 8.0), 400 mM sodium chloride, and 1 mM Tris (2-carboxyethyl) phosphine hydrochloride (TCEP), followed by sonication and centrifugation. The supernatant was purified using a His Prep FF 16/10 column (GE Healthcare) and eluted with 500 mM imidazole. Eluted protein was dialyzed overnight at 4°C in a buffer with 50 mM Tris (pH 8.0), 150 mM sodium chloride, and 0.5 mM TCEP in the presence of His-tagged TEV protease. To remove the His tag, the mixture was passed over the His Prep FF 16/10 column again.
(§2) The purified proteins listed above were incubated at room temperature with β-lactams or BLIs at a molar ratio of 1:20 for 2 h. The reactions were then quenched with acetonitrile and diluted to 1 mL with 0.1% formic acid in water. Samples were analyzed using a quadrupole time-of-flight (Q-TOF) Waters Synapt-G2-Si electrospray ionization mass spectrometer (ESI-MS) and a Waters Acquity H class ultra-performance liquid chromatography (UPLC) system, equipped with a BEH C18 1.7 µm column (2.1 × 50 mm). The MS was tuned with the following settings: capillary voltage set at 3 kV, sampling cone at 35 V, source offset at 35, source temperature of 100°C, desolvation temperature of 500°C, cone gas flow rate at 100 L/h, desolvation gas flow rate at 800 L/h, and nebulizer set at 6.0. The mobile phases consisted of 0.1% formic acid in water and 0.1% formic acid in 100% acetonitrile, with gradient elution from 10% to 90% of […] over 11 min. The system’s mass accuracy was ±5 Da.

PBP B = PBP B (Mycobacterium abscessus, UniProt B1MP31); assay: Mass spectrometry of covalent adduct formation; assay type: binding; conditions: protein:drug 1:20, 2 h; mass accuracy ±5 Da; (−) = no change
Description: as §1, with “Protein expression was induced with 0.25 mM isopropyl β-d-1-thiogalactopyranoside (IPTG) and incubated for 18 h at 18°C.” left out
as §2

Mab ATCC 19977 = assay: Static drug-concentration time-kill (SCTK) assay with CART analysis; assay type: cell-based, Mycobacterium abscessus; conditions: clinically achievable concentrations, over 10 days; AVI 4 mg/L; DUR 12 mg/L + SUL 7 mg/L
LDT2 = LDT2 (Mycobacterium abscessus, UniProt B1MMQ4); assay: Mass spectrometry of covalent adduct formation; assay type: binding; conditions: protein:drug 1:20, 2 h; mass accuracy ±5 Da; (−) = no change
Description: as §1, §2

LDT5 = LDT5 (Mycobacterium abscessus, UniProt B1MM58); assay: Steady-state kinetics with nitrocefin (Ki,app); assay type: biochemical; conditions: in parentheses in Table 3
Description: Steady-state kinetic studies were conducted using purified LDTs and PBPs (LDT1-5, PBP B, PBP-lipo, and DDC) as previously described ([20]). The assays were performed using a BioTek Synergy2 multimode reader in conjunction with Gen5 analysis software. […] To determine reaction velocities, a 0.25 cm path length was employed. The steady-state kinetic parameters (Vmax, kcat, and Km) were obtained by fitting the data to the Henri-Michaelis-Menten equation using a nonlinear least-squares fit in Origin 8.1 software (OriginLab, Northampton, MA). The reaction rate (v) at a given substrate concentration ([S]) was calculated according to the following equations: […]
Changes in absorbance at 482 nm were measured over a period of 0–30 min for each concentration of β-lactams and BLIs. Data were linearized using a Dixon plot, plotting the inverse changes in absorbance (1/ΔA) against the concentrations of β-lactams and BLIs. The observed Ki,app was determined directly from the Dixon plot, and these values were corrected for substrate concentration and affinity for the LDT using the following equation:
Ki,app=observed Ki,app/1+[NCF]/Km NCF

[2] = read-out: Ki,app BlaMab (converted)

Chain of LDT2 (B1MMQ4 entry or part of it): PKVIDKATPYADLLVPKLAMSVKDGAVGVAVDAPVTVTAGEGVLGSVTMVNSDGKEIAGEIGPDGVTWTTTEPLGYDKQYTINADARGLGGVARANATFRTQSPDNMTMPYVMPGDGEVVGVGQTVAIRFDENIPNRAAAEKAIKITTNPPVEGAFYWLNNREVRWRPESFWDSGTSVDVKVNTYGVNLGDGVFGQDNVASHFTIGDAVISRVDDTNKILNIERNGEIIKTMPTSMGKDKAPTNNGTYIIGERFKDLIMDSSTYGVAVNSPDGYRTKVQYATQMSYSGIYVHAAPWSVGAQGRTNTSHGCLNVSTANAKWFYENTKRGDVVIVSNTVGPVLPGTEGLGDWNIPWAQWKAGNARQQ
Chain of PBP B (B1MP31 entry or part of it): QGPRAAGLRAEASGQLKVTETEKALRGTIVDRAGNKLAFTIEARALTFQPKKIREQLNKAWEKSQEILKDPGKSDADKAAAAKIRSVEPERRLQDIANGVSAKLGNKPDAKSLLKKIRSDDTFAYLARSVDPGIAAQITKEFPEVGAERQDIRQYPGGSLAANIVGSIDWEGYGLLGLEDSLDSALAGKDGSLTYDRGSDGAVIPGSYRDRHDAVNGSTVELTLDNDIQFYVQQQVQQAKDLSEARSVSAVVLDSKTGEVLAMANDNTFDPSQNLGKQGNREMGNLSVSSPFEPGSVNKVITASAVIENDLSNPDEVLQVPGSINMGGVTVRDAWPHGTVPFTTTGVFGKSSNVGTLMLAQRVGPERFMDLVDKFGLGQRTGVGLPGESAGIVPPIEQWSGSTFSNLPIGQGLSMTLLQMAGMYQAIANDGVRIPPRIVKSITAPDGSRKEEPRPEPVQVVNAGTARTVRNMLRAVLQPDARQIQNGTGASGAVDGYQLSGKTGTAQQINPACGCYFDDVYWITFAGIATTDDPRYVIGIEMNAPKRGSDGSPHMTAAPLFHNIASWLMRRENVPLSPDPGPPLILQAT
Chain of LDT5 (B1MM58 entry or part of it): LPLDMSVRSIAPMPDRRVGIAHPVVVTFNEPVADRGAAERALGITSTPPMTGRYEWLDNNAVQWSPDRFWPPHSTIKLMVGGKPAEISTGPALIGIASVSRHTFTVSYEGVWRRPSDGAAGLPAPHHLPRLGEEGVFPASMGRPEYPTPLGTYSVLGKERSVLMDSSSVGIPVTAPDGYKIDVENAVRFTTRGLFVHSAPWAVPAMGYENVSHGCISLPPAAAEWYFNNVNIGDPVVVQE
Chain of BlaMab (B1MCI3 entry or part of it): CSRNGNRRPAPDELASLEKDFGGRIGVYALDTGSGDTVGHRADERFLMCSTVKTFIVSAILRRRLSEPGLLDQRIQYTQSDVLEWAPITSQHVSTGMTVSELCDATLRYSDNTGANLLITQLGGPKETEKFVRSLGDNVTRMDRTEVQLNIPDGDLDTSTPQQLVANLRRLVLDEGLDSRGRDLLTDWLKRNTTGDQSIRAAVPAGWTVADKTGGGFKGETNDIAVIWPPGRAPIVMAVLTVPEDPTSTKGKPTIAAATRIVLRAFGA
Chain of LDT3 (B1MHQ4 entry or part of it): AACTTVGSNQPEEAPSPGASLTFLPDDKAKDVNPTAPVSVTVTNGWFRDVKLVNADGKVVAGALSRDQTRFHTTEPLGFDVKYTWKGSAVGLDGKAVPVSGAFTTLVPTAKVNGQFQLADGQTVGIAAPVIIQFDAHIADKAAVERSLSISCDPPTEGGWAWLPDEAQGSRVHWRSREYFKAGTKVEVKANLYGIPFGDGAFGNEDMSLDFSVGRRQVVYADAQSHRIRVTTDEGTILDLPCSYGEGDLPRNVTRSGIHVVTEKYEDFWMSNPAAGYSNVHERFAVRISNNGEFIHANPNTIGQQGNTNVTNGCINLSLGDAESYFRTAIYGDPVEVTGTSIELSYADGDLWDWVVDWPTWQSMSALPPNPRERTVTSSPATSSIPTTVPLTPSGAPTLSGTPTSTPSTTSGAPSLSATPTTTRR

Compound	Ki (BlaMab; read-out: Ki,app BlaMab) [µM]	fCss,avg [1] [mg/L]	Observed MW (+ change in mw), LDT3 (44,795) (LDT3)	Observed MW (+ change in mw), PBP B (62,915) (PBP B)	Bacterial killing (log10 reduction) in time-kill (Mab ATCC 19977)	Ki (BlaMab; [2]) [µM]	Observed MW (+ change in mw), LDT2 (39,216) (LDT2)	Ratio of fCss,avg to Ki,app, LDT5 (LDT5)
CC1(C)S[C@@H]2[C@H](NC(=O)[C@H](N)c3ccc(O)cc3)C(=O)N2[C@H]1C(=O)O [Amoxicillin, amoxicillin]	< 13.7	6	44,794 (−) Da	63,280 (+365) Da	no killing effect	–	–	–
NC(=O)[C@@H]1CC[C@@H]2CN1C(=O)N2OS(=O)(=O)O [Avibactam, avibactam]	–	5	44,794 (−) Da	63,180 (+265) Da	no effect on bacterial growth inhibition or killing; also recorded: no effect	0.3	39,482 (+266) Da	–
CO/N=C(\C(=O)N[C@@H]1C(=O)N2C(C(=O)O)=C(COC(N)=O)CS[C@H]12)c1ccco1 [Cefuroxime, cefuroxime]	–	12	44,794 (−) Da	63,279 (+364) Da	–	–	39,597 (+381) Da	7.5
CC1=C[C@@H]2CN(C(=O)N2OS(=O)(=O)O)[C@@H]1C(N)=O [Durlobactam, durlobactam]	–	16	44,794 (−) Da	63192 (+277) Da	~ 2 log10 CFU/mL	0.00397	39,492 (+278) Da	145
C[C@@H](O)[C@H]1C(=O)N2C(C(=O)O)=C(SCCN=CN)C[C@H]12 [Imipenem, imipenem]	–	12	44,794 (−) Da	63,215 (+300) Da	–	17	39,515 (+299) Da	0.4
C[C@@H](O)[C@H]1C(=O)N2C(C(=O)O)=C(S[C@H]3CC[S@@+]([O-])C3)S[C@H]12 [Sulopenem, sulopenem]	–	2	45,143 (+349) Da	63,264 (+349) Da	–	–	39,298 (+86) Da	1.5
C[C@@H](O)[C@H]1C(=O)N2C(C(=O)O)=C(SC3CN(C4=NCCS4)C3)[C@H](C)[C@H]12 [Tebipenem, tebipenem]	–	1.7	44,794 (−) Da	–	–	< 13	39,602 (+386) Da	–
